Where two headings read alike, the source gives them in different places.
Tests used:
[1] = test system: A549 (lung adenocarcinoma); test: Cell growth inhibition (standard SRB assay), A549; format: cell-based, human; settings: 3 days of continuous treatment, read-out: Cell growth inhibition ED50
[2] = test system: MCF-7 (breast adenocarcinoma); test: Cell growth inhibition (standard SRB assay), MCF-7; format: cell-based, human; settings: 3 days of continuous treatment, read-out: Cell growth inhibition ED50
[3] = test system: KB (nasopharyngeal carcinoma); test: Cell growth inhibition (standard SRB assay), KB; format: cell-based, human; settings: 3 days of continuous treatment, read-out: Cell growth inhibition ED50
[4] = test system: KB-7d (MRP-pleotrophic multidrug-resistant KB sub-clone); test: Cell growth inhibition (standard SRB assay), KB-7d; format: cell-based, human; settings: 3 days of continuous treatment, read-out: Cell growth inhibition ED50
[5] = test system: KB (nasopharyngeal carcinoma); test: Cytotoxicity (cell killing after 30 minutes of treatment), KB; settings: kills 50% of the cells after 30 minutes of treatment
Method: (§1) Biological Assay and Results. […] Freshly trypsinized KB cells were exposed to drug at 5, 0.5, or 0.05 μM for 30 minutes, respectively. Then, 250 or 500 cells were immediately plated and left undisturbed for 12 days. Colonies were fixed with formalin and stained with toluidine blue.

[6] = test system: KB-7d (MRP-pleotrophic multidrug-resistant KB sub-clone); test: Cytotoxicity (cell killing after 30 minutes of treatment), KB-7d; settings: kills 50% of the cells after 30 minutes of treatment
Method: as §1

[7] = test system: KB cells; test: Clonogenic assay; format: cell-based, human; settings: 5 μM for 30 minutes, colonies after 12 days
Method: as §1

[8] = test system: DNA topoisomerase II; test: In vitro topoisomerase II inhibition, plasmid relaxation/cleavage assay; format: biochemical; settings: for Minimum concentration to detect linear DNA: DNA topoisomerase II inhibition; for Relative activity as topoisomerase II inhibitor versus standards: compared with GL-331 and etoposide
[9] = test system: A549 (lung adenocarcinoma); test: Cytotoxicity (cell killing after 30 minutes of treatment), A549; settings: kills 50% of the cells after 30 minutes of treatment
[10] = test system: MCF-7 (breast adenocarcinoma); test: Cytotoxicity (cell killing after 30 minutes of treatment), MCF-7; settings: kills 50% of the cells after 30 minutes of treatment

| Compound | EC50 [1] | EC50 [2] | EC50 [3] | EC50 [4] | Cytotoxicity LD50 [5] | Cytotoxicity LD50 [6] | % Inhibition [7] | Minimum concentration to detect linear DNA [8] | Relative activity as topoisomerase II inhibitor versus standards [8] | Cytotoxicity LD50 [9] | Cytotoxicity LD50 [10] | EC50 ([1]; Homo sapiens, 72 h) | EC50 ([2]; Homo sapiens, MCF7, 72 h) | EC50 ([3]; Homo sapiens, 72 h) | EC50 ([4]; Homo sapiens, KB7D, 72 h) |
| --- | --- | --- | --- | --- | --- | --- | --- | --- | --- | --- | --- | --- | --- | --- | --- |
| COC(=O)[C@H](Cc1ccc(O)cc1)NC(=O)c1ccc(NC2c3cc4c(cc3C(c3cc(OC)c(O)c(OC)c3)C3C(=O)OCC23)OCO4)cc1 (stereo partly drawn) [Compound 12, 4′-O-demethyl-4β-[4″-(methyl L-tyrosine-N-carbonyl)-anilino]-4-desoxy-podophyllotoxin] | 2400 nM | 4.5 µM | 1900 nM | 5 µM | 1.7 µM | <20 µM | 99.5% | 5 µM | at least as active as GL-331 and four-fold more active than etoposide | 12.5 µM | <3.1 µM |  |  |  |  |
| COc1cc([C@@H]2c3cc4c(cc3[C@@H](O[C@@H]3O[C@@H]5CO[C@@H](C)O[C@H]5[C@H](O)[C@H]3O)[C@H]3COC(=O)[C@H]23)OCO4)cc(OC)c1O [Etoposide] |  |  |  |  | 49.0 µM | >50 µM |  | 20 µM |  | >50 µM | 21 µM | 5200 nM | > 20 µM | 750 nM | > 10 µM |
| COc1cc([C@@H]2c3cc4c(cc3[C@@H](Nc3ccc([N+](=O)[O-])cc3)[C@H]3COC(=O)[C@H]23)OCO4)cc(OC)c1O [GL-331, reference compound] | 700 nM | 12 µM | 300 nM | 1.9 µM | 9.9 µM | <50 µM | 46% | 5 µM |  | 6.6 µM | 5.3 µM |  |  |  |  |
| 4′-O-demethyl-4β-{4″-[4′″-(benzimidazol-2″″-yl)-amido]-anilino}-4-desoxypodophyllotoxin [Compound 14] |  |  | > 25000 nM |  |  |  |  |  |  |  |  |  |  |  |  |
| 4′-O-demethyl-4β-[4″-(methyl L-tryptophan-N-carbonyl)-anilino]-4-desoxypodophyllotoxin [Compound 13] |  |  | 750 nM | < 0.1 µM |  |  | 82% | 5 µM | at least as active as GL-331 and four-fold more active than etoposide |  |  |  |  |  |  |
| COc1cc(C2c3cc4c(cc3C(NC(=O)[C@H](Cc3ccc(O)cc3)NC(=O)OCc3ccccc3)C3COC(=O)C23)OCO4)cc(OC)c1O (stereo partly drawn) [Compound 10, 4′-O-demethyl-4β-[(N—CBZ-L-tyrosine-carbonyl)-amino]-4-desoxy-podophyllotoxin] | > 20000 nM |  | 2300 nM | 6.7 µM |  |  |  |  |  |  |  |  |  |  |  |

From patent publication US6872841B2 (The University of North Carolina at Chapel Hill, priority 2002, dated 2005)
